Assay results published in patent US5138101A, “Recovery of high-boiling aldehydes from rhodium-catalyzed hydroformylation processes” (Eastman Kodak Company, priority 1991, dated 1992).
Each block holds one compound with its values, some of them ahead of it.

Assays:
[1] = Partitioning (partition coefficient, Kp) of hydroformylation products and hydroformylation solvent between hydroformylation solvent phase and alkanol/water extraction solution phase; type: physicochemical
Description: The extraction process described herein is the equilibration of a particular compound dissolving into two separate liquid phases. The effectiveness of the present extraction process may be measured in terms of the partition coefficient (Kp) for a compound "X" which is defined as: [formula] […] High Kp values give high extraction efficiencies requiring lower amounts of extraction solution. Similarly, it is desirable that the Kp of the hydroformylation solvent be a low value. This simplifies purification of the aldehyde products down-stream. In the hydroformylation of diolefins to dialdehydes, it also is desirable to have Kp values for the dialdehyde products larger than the Kp values of the intermediate mono-aldehyde mono-olefin (formyl-olefin) intermediate formed in the hydroformylation reaction. This permits recycling of the formyl-olefin to the hydroformylation reactor in the hydroformylation solvent for further reaction to the desired dialdehyde product, while selectively extracting the desired di-aldehyde product. Likewise, for the same reason, it is desirable to have low Kp values for the olefin or polyolefin feedstocks used in the process.
The extraction examples were carried out in a 300 mL, 3-neck, glass flask equipped with a Teflon magnetic stir bar, a thermometer to measure the temperature of the liquid, a septum for the use of a syringe, a heating mantle and a nitrogen bubbler blanket for the system. […] […] The mixture was stirred at 25° C. for 30 minutes to reach equilibrium, stirring was stopped, and the mixture was allowed to separate into 2 layers (phases) over a 30 minute period of time. […] Samples of each phase were taken with a syringe and chromatographed on a Hewlett Packard Model 5730 capillary FID gas chromatograph. The instrument used a 30 meter DB-1 column (Supelco.) with a programming rate of a 4 minute hold at 70° C. with a programming rate of 8° C./minute to 250° C. The calculations for the weights of hydroformylation products in each phase were carried out using standard procedures using the dodecane as an internal standard for the catalyst layer and methanol as the internal standard for the aqueous layer. The initial volumes of the two phases were used for estimation of the volumes of the two phases at equilibrium to obtain the concentrations of the products in each phase.
The partition coefficients (Kp) were calculated for the C9-enal and C10-dial products for equilibrium between the dodecane hydroformylation solvent and the extraction solution phases at 25° C.
The two phases in the flask were heated to and maintained at 53° C. with stirring for 30 minutes to reach equilibrium. The mixture was allowed to separate into 2 layers at 53° C. and each layer was sampled and analyzed as described above. […] The partitioning procedure was repeated at 70° C.

[2] = Extraction and back-extraction with p-diisopropylbenzene or 1,7-octadiene: rhodium concentration in both phases, composition of extraction solution; type: physicochemical
Method: Examples […] illustrate yet another embodiment of the process of the present invention wherein extraction solution containing dissolved rhodium is back-extracted with either hydroformylation solvent or olefinic feedstock to reduce the concentration of rhodium in the extraction solution.
The general procedure described in Examples 31-48 was used to extract 60.5 mL of hydroformylation product solution obtained by the hydroformylation of 1,7 octadiene in the presence of a catalyst system comprising rhodium and BISBI phosphine (Reference Example 9). […] The extraction flask was charged with the hydroformylation product solution, 37 mL methanol, 12 mL water and […] [Na] provided as sodium oleate.
For Example 88, the extraction mixture was stirred at room temperature for 30 minutes and then drained into a calibrated, addition funnel and allowed to stand for about five minutes to permit phase separation. The volume of the hydroformylation product solution (organic) phase was 45 mL and the volume of the extraction solution phase was 65 ml. Samples of each phase were taken for rhodium and product composition analyses.
For Example 89, the extraction solution phase separated in Example 88 was added to a clean 250 mL flask along with 30 mL of p-diisopropylbenzene and the mixture was stirred at 50° C. for 30 minutes, was allowed to stand at 50° C. for about 5 minutes to permit phase separation and then each phase was separated and analyzed for composition and rhodium concentration.
For Example 90, the extraction solution separated in Example 89 was added to a clean 250 mL flask along with another 30 mL of p-diisopropylbenzene hydroformylation solvent. The mixture was agitated at 50° C. for thirty minutes, allowed to stand at 50° C. for 5 minutes to permit phase separation and each phase was analyzed for composition and rhodium concentration.
This scheme would be useful in a counter-current extraction method for recycling recovered hydroformylation product solution as well as in using the olefinic feed to the reactor as a back extraction solvent for recovering soluble rhodium from the methanol/water extract.
Example 91 was carried out using the procedure described in Examples 88. The flask was charged with 62 mL of a hydroformylation product solution (Reference Example 10) having a rhodium concentration 166 mg/L and containing 3.01 g of C9-enal, 12.69 g of C10-dial and 37.84 grams of p-diisopropylbenzene. Methanol (37 ml), water (16 ml) and 78 mg Na (as sodium 2-ethylhexanoate) were added to the flask. This mixture was stirred at 50° C. for 30 minutes and then allowed to stand for 5 minutes at 50° C. to permit phase separation. The hydroformylation product solution (organic) phase and the extraction solution phase were both sampled and analyzed for rhodium concentration. The 2 phases were drained into a clean, graduated addition funnel and the volumes of the two phases were measured. The volume of the organic layer was 43 mL and the extraction solution layer was 62 mL.
For Example 92, the extraction solution phase produced in Example 91 was added to a clean, 250 mL flask along with 30 mL of p-diisopropylbenzene and the mixture was stirred at 50° C. for 30 minutes and then allowed to separate into two phases. The two phases were analyzed for rhodium concentration and composition. The mixture was drained into a clean addition funnel to separate the two phases. For Example 93, the extraction solution phase of Example 92 and 30 mL of 1,7-octadiene were added to a clean, 250 mL flask. This mixture was stirred at 50° C. for 30 minutes and then allowed to separate into two phases which were analyzed for rhodium concentration.
The amounts (g) of C9-enal, C10-dial in the sample of hydroformylation product solution initially extracted and in the methanol/water extraction solutions resulting from Examples 91, 92 and 93 are given in Table XIII. The ratio given in Table XIII is the weight ratio of C10-dial:C9-enal. […]

[3] = Example 92, after p-diisopropylbenzene back-extraction
[4] = Example 93, after 1,7-octadiene back-extraction

Compound: C1CCC2CCCCC2C1 (stereo not drawn) [decahydronaphthalene]
Partition Coefficient ([1]; Example C-4, Ref. Ex. 17, DEG:water 1:1, 25° C.): 0.0050 | Partition Coefficient ([1]; Example C-5, Ref. Ex. 17, DEG:water 1:1, 70° C.): 0.034

Compound: CCCCC(CC)COC(=O)c1ccccc1C(=O)OCC(CC)CCCC (stereo not drawn) [di-(2-ethylhexyl) phthalate]
Partition Coefficient ([1]; Example 16, Ref. Ex. 23, MeOH:water 3:1, 50° C.): 0.0448 | Partition Coefficient ([1]; Example 17, Ref. Ex. 23, MeOH:water 1:1, 50° C.): 0.0037

Compound: c1ccc2c(c1)CCCC2 [tetrahydronaphthalene]
Partition Coefficient ([1]; Example 15, Ref. Ex. 22, MeOH:water 1.5:1, 52° C.): 0.079 | Partition Coefficient ([1]; Example C-6, Ref. Ex. 18, DEG:water 3:1, 25° C.): 0.092

Composition of Extraction Solution (amount) ([2]; Example 91): 11.67 g | Weight ratio of C10-dial:C9-enal in extraction solution ([2]; Example 91): 8.40 | Weight ratio of C10-dial:C9-enal in extraction solution ([2]; Example 92): 18.06 | Composition of Extraction Solution (amount) [2, 3]: 9.21 g | Weight ratio of C10-dial:C9-enal in extraction solution ([2]; Example 93): 33.94 | Composition of Extraction Solution (amount) [2, 4]: 6.11 g
Compound: isomeric decanedialdehyde [C10-dial]

Composition of Extraction Solution (amount) ([2]; Example 91): 1.39 g | Composition of Extraction Solution (amount) [2, 3]: 0.51 g | Composition of Extraction Solution (amount) [2, 4]: 0.18 g
Compound: isomeric noneneal [C9-enal]
